Results on 21 molecules are retold here after patent US20220153732A1, “PROTEIN SECRETION INHIBITORS” (KEZAR LIFE SCIENCES, priority 2019, published 2022).

Common to all, as to format: cell-based
The test system of experiment [1] is PD1-ss+10aa/Gaussia Luciferase. Put plainly: Dox-Induced PD1-ss-Gluc Assay. Conditions: 24 hr doxycycline induction, 293FRT/TO cells, Gaussia luciferase signal; read-out: 24 hr Dox Inducible PD1ssGluc 293FRT/TO: Mean IC50. An outline of the steps:
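Stable cell line carrying PD1-ss+10aa/Gaussia luciferase cDNA under T-REx (doxycycline-inducible) control, plated the day before assay. Compound dilutions in DMSO/media containing doxycycline added and incubated at 37° C, 5% CO2. Undefined stereocentres: data refer to stereoisomer mixtures.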

For experiment [2], the system named is IL-2-FL/Gaussia Luciferase. Put plainly: Dox Induced IL2-FL-Gluc Assay. Particulars: 24 hr doxycycline induction, 293FRT/TO cells, Gaussia luciferase signal; read-out: 24 hr Dox Inducible IL2FLGIuc 293FRT/TO: Mean IC50. An outline of the steps: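 Stable T-REx cell line expressing doxycycline-inducible IL-2-FL/Gaussia luciferase cDNA, plated the day before assay. Compound dilutions in DMSO/media containing doxycycline added and incubated at 37° C., 5% CO2. Unspecified stereochemistry means data refer to a stereoisomer mixture.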

The test system of experiment [3] is HER3-ss+4aa/Gaussia Luciferase. As to the kind of experiment: Dox-Induced Her3-ss-Gluc Assay. Conditions: 24 hr doxycycline induction, 293FRT/TO cells, Gaussia luciferase signal; read-out: 24 hr Dox Inducible Her3(ss + 4)Gluc 293FRT/TO: Mean IC50. The method in brief: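 Stable T-REx cell line carrying a doxycycline-regulated HER3-ss+4aa/Gaussia luciferase insert, plated the day before assay. Compound dilutions in DMSO/media with doxycycline added, then incubated at 37° C., 5% CO2. Stereoisomer mixtures tested where stereochemistry is not drawn.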

Experiment [4] relates to human multiple myeloma cell line U266B1. As to the kind of experiment: U266 Cell Viability Assay. Conditions: U-266, 48 hr, U266B1 cells, Celltiter-Glo, read-out: 48 hr U266 Viability Celltiter-Glo: Mean EC50. An outline of the steps:
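U266B1 myeloma cells treated with compound dilutions in DMSO/media for 48 h at 37 °C, 5% CO2. Viability read by CellTiter-Glo luminescence. Stereochemically undefined structures were tested as stereoisomer mixtures.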
For orientation: In ATP-based viability assays light output follows the ATP content of the culture.

For experiment [5], the system named is human multiple myeloma cell line NCI-H929. As to the kind of experiment: H929 Cell Viability Assay. Particulars: 48 hr, NCI-H929 cells, Celltiter-Glo, read-out: 48 hr H929 Viability Celltiter-Glo: Mean EC50. The method, then:
Plates were incubated at 37° C., 5% CO2 for 48 hours. After 48 hours, Celltiter-Glo® (Promega) was added to each well and luciferase signal was quantified using Tecan Infinite M1000 Pro for cell viability determination.
For chemical structures that include one or more stereoisomers, but are illustrated without indicating stereochemistry, the assay data refers to a mixture of stereoisomers.

Experiment [6] deals with TNFα-FL/Gaussia Luciferase. As to the kind of experiment: Dox Induced TNFα-FL-Gluc Assay. Particulars: 24 hr doxycycline induction, 293FRT/TO cells, Gaussia luciferase signal; read-out: 24 hr Dox Inducible TNFaFLGluc 293FRT/TO: Mean IC50. An outline of the steps:
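A stable T-REx cell line carrying doxycycline-inducible TNFα-FL/Gaussia luciferase was plated the day before assay. Compound dilutions in DMSO/media containing doxycycline were then added and incubated at 37° C, 5% CO2.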

Turning to `COc1ccc(/C=C/c2csc(NC(=O)c3cccn3Cc3ccncc3)n2)nc1` [Compound A269, N-(4-(2-(5-methoxypyridin-2-yl)vinyl)thiazol-2-yl)-1-(pyridin-4-ylmethyl)-1H-pyrrole-2-carboxamide], the IC50 came out at 0.013 µM in experiment [1], 2.92 µM in experiment [2], 1.57 µM in experiment [3] and 20.3 µM in experiment [6]. Besides, the half-maximal effective concentration (EC50) was over 25 µM in experiment [4] and over 21.6 µM in experiment [5].

For `O=C(Nc1nc([C@H]2CCC[C@@H](c3ccccc3)C2)cs1)c1cccn1Cc1ccncc1` [Compound A270], the IC50 in experiment [1] was determined as 0.161 µM; in experiment [2] it was 0.599 µM; in experiment [3], 0.463 µM; in experiment [6], 1.74 µM. Moreover, the EC50 was over 25 µM in experiment [4] and 10.4 µM in experiment [5].

In the case of `O=C(Nc1nc([C@@H]2CCC[C@@H](c3ccccc3)C2)cs1)c1cccn1Cc1ccncc1` [Compound A271], the IC50 in experiment [1] was found to be 0.316 µM; in experiment [2] it was 0.951 µM; in experiment [3], 0.912 µM; in experiment [6], 2.87 µM. Further, the figures for the EC50 in experiment [4] and in experiment [5] were over 25 µM and 15.5 µM, respectively.

Take `O=C(Nc1nc(/C=C/c2ccc3c(n2)OCO3)cs1)c1cccn1Cc1ccncc1` [Compound A272]: the IC50 is 0.261 µM in experiment [1], over 25 µM in experiment [2], 1.72 µM in experiment [3] and over 25 µM in experiment [6]. Also, the EC50 in experiment [4] and in experiment [5] was over 25 µM each time.

Consider `O=C(Nc1nc(N2CCC(c3ccccc3)C2)cs1)c1cccn1Cc1ccncc1` (stereo not drawn) [Compound A273], for which the IC50 in experiment [1], in experiment [2], in experiment [3] and in experiment [6] was over 25 µM in each case. The EC50 in experiment [4] and in experiment [5] was over 25 µM in each case.

Regarding `O=C(Nc1nc(/C=C/c2cnc3c(c2)OCO3)cs1)c1cccn1Cc1ccncc1` [Compound A274], the IC50 in experiment [1] amounted to 0.363 µM; in experiment [2], 3.74 µM; in experiment [3], 2.55 µM; in experiment [6], 22.3 µM. The EC50 in experiment [4] is over 25 µM; in experiment [5], 23.9 µM.

Take `O=C(Nc1nc([C@H]2CCCN2c2ccccc2)cs1)c1cccn1Cc1ccncc1` [Compound A275]: the IC50 in experiment [1] came out at 0.015 µM; in experiment [2] it was 0.029 µM; in experiment [3], 0.032 µM; in experiment [6] it was 0.147 µM. Moreover, the figures for the EC50 in experiment [4] and in experiment [5] were over 25 µM and 1.47 µM, respectively.

Regarding `O=C(Nc1nc([C@@H]2CCCN2c2ccccc2)cs1)c1cccn1Cc1ccncc1` [Compound A276], the IC50 in experiment [1] was found to be 0.287 µM; in experiment [2], 1.5 µM; in experiment [3], 0.859 µM; in experiment [6], 2.47 µM. Further, the EC50 in experiment [4] is over 25.8 µM; in experiment [5], 19.4 µM.

Take `O=C(Nc1nc([C@@H]2CCCN2Cc2ccccc2)cs1)c1cccn1Cc1ccncc1` [Compound A277]: the IC50 worked out at 0.325 µM in experiment [1], 0.769 µM in experiment [2], 0.819 µM in experiment [3] and 4.06 µM in experiment [6]. For the same molecule, the EC50 in experiment [4] is over 25 µM; in experiment [5], 18.7 µM.

Take `O=C(Nc1nc([C@H]2CCCN2Cc2ccccc2)cs1)c1cccn1Cc1ccncc1` [Compound A278]: the IC50 in experiment [1] was 0.538 µM; in experiment [2], 1.27 µM; in experiment [3], 1.13 µM; in experiment [6], 5 µM. Besides, the EC50 in experiment [4] was over 25 µM; in experiment [5] it was over 23.9 µM.

On to `O=C(Nc1nc([C@H]2CCN(Cc3ccccc3)C2)cs1)c1cccn1Cc1ccncc1` [Compound A279], for which the IC50 is 1.14 µM in experiment [1], 4.97 µM in experiment [2], 4.2 µM in experiment [3] and over 25 µM in experiment [6]. The EC50 in experiment [4] and in experiment [5] was over 25 µM throughout.

With `CC(C)OC(C)(C)c1csc(NC(=O)c2ccccc2Cc2ccncc2)n1` [Compound A280, N-(4-(2-isopropoxypropan-2-yl)thiazol-2-yl)-2-(pyridin-4-ylmethyl)benzamide], the IC50 in experiment [1] was 12.7 µM; in experiment [2], over 25 µM; in experiment [3], over 25 µM; in experiment [6] it was over 25 µM. Moreover, the EC50 in experiment [4] and in experiment [5] was over 25 µM throughout.

With `O=C(Nc1nc(C2Cc3ccccc3C2)cs1)c1cccn1Cc1ccncc1` [Compound A281], the IC50 came out at 0.244 µM in experiment [1], 1.16 µM in experiment [2], 0.817 µM in experiment [3] and 1.95 µM in experiment [6]. For the same molecule, the EC50 in experiment [4] was over 25 µM; in experiment [5], 11 µM.

Consider `O=C(Nc1nc(C2CCN(c3ccccc3)CC2)cs1)c1cccn1Cc1ccncc1` [Compound A282], for which the IC50 came to 0.324 µM in experiment [1], 1.51 µM in experiment [2], 0.864 µM in experiment [3] and 4.66 µM in experiment [6]. Also, the EC50 in experiment [4] came out at 12.5 µM; in experiment [5] it was 7.08 µM.

Turning to `O=C(Nc1nc(C2CCc3ccccc3O2)cs1)c1cccn1Cc1ccncc1` (stereo not drawn) [Compound A283], the IC50 in experiment [1] was determined as 1.35 µM; in experiment [2], 3.87 µM; in experiment [3], 3.07 µM; in experiment [6], 7.18 µM. In addition, the EC50 in experiment [4] is over 25 µM; in experiment [5], 23 µM.

As for `O=C(Nc1nc(C2Cc3ccccc3C2)cs1)c1cccn1CCCc1ccncc1` [Compound A284], the IC50 in experiment [1] came to 0.767 µM; in experiment [2], 2.32 µM; in experiment [3], 1.24 µM; in experiment [6] it was 4.07 µM. The values for the EC50 in experiment [4] and in experiment [5] were 6.1 µM and 4.92 µM, respectively.

For the molecule `O=C(Nc1nc(C2CCN(c3ccccc3)CC2)cs1)c1cccn1CCCc1ccncc1` [Compound A285], the IC50 was 1.23 µM in experiment [1], 2.86 µM in experiment [2], 1.84 µM in experiment [3] and 16.1 µM in experiment [6]. Moreover, the EC50 stood at 16.7 µM in experiment [4] and 17.8 µM in experiment [5].

In the case of `O=C(Nc1nc(C2CCc3ccccc3O2)cs1)c1cccn1CCCc1ccncc1` (stereo not drawn) [Compound A286], the IC50 in experiment [1] was 1.28 µM; in experiment [2], 3.93 µM; in experiment [3], 2.42 µM; in experiment [6], 6.17 µM. Besides, the EC50 in experiment [4] was 15.7 µM; in experiment [5], 9.57 µM.

With `O=C(Nc1nc(C2CC(c3ccccc3)C2)cs1)c1cccn1CCCc1ccncc1` (stereo not drawn) [Compound A287], the IC50 in experiment [1] was 0.088 µM; in experiment [2], 0.376 µM; in experiment [3], 0.181 µM; in experiment [6] it was 1.16 µM. Further, the values for the EC50 in experiment [4] and in experiment [5] were over 25 µM and 5.06 µM, respectively.

As for `O=C(Nc1nc(C2Cc3ccccc3O2)cs1)c1cccn1Cc1ccncc1` (stereo not drawn) [Compound A288], the IC50 in experiment [1] turned out to be 0.44 µM; in experiment [2], 1.54 µM; in experiment [3], 1.26 µM; in experiment [6], 3.03 µM. The EC50 is over 25 µM in experiment [4] and 23.9 µM in experiment [5].

In the case of `O=C(Nc1nc([C@@H]2CCN(c3ccccc3)C2)cs1)c1cccn1Cc1ccncc1` [Compound A289], the IC50 in experiment [1] was determined as 0.201 µM; in experiment [2], 0.856 µM; in experiment [3], 0.512 µM; in experiment [6] it was 3.61 µM. Further, the EC50 in experiment [4] is over 25 µM; in experiment [5] it was 22 µM.

The EC50 is the concentration at which the effect is half-maximal.
